The values below come from ChEMBL document CHEMBL5257034, “Hybrid molecules: The privileged scaffolds for various pharmaceuticals” (Eur J Med Chem, 2016).

A word on the IC50: it is the concentration that inhibits the measured activity by half.

In test [1] the target is T1, Prostaglandin G/H synthase 2 (Rattus norvegicus, UniProt P35355).
T1 sequence (P35355 whole entry): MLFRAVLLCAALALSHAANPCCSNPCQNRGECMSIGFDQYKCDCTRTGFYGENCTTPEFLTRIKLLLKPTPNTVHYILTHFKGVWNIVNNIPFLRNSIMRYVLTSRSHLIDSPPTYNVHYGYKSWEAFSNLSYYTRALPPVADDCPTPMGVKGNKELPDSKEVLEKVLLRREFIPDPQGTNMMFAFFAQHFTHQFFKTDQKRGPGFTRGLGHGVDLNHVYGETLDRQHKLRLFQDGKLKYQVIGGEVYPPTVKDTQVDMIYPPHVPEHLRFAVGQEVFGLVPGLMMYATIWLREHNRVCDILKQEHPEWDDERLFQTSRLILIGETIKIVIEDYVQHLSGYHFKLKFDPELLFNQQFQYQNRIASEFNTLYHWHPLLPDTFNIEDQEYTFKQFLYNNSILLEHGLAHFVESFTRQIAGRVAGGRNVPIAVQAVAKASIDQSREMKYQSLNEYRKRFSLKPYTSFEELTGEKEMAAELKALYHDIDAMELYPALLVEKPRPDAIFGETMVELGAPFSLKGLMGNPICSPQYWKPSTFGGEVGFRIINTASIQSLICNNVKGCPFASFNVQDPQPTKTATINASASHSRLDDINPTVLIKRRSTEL
As to the kind of experiment: Inhibition of COX2 in rat macrophages using arachidonic acid as substrate preincubated with compound for 30 mins followed by substrate addition and measured after 20 mins by EIA. The test is classed as cell-based, Macrophage.

Test [2] deals with T2, Polyunsaturated fatty acid 5-lipoxygenase (Rattus norvegicus, UniProt P12527).
T2 sequence (P12527 whole entry): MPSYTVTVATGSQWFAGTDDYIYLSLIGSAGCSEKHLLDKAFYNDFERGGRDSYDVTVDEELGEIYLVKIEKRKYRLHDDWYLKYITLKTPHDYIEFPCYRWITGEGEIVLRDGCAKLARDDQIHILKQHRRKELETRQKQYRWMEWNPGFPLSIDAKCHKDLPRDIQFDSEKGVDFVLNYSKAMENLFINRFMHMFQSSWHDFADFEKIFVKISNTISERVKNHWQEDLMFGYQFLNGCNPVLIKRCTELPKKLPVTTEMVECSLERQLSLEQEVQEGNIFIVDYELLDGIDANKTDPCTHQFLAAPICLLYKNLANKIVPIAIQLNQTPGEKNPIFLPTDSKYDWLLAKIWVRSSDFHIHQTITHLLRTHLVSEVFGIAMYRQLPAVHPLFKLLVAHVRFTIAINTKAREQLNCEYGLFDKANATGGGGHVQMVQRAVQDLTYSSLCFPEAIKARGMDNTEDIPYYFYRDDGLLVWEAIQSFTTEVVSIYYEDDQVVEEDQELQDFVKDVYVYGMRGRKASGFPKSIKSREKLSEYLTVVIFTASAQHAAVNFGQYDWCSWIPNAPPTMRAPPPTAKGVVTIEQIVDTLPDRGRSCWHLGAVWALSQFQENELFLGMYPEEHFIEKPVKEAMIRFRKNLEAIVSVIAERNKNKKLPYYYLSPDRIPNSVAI
As to the kind of experiment: Inhibition of 5-LOX in Sprague-Dawley rat leukocytes preincubated for 30 mins followed by calcium ionophore A23187 addition and measured after 20 mins by EIA. The test is classed as cell-based, Leucocyte.

Test [3] is described as follows: Selectivity index, ratio of IC50 for inhibition of COX2 in rat macrophages to IC50 for inhibition of COX1 in calf endotheliocyte.

Take `CS(=O)(=O)c1ccc(-c2nc(SCCN(O)C(N)=O)nn2-c2ccc(Br)cc2)cc1`: the half-inhibitory concentration (IC50) came out at 150 nM in test [1] and 850 nM in test [2]. The Ratio IC50 in test [3] turned out to be 0.015.
